Measured values as given in patent publication US11459410B2, “High-purity amphipathic arylsulfonic acid amine salt vinyl monomer and copolymer thereof” (TOSOH FINECHEM CORPORATION, priority 2017, dated 2022).
Read-outs that look alike come from different tables or passages of the source.

How the values were obtained:
[1] = Evaluation 1 (Solubility): saturation solubility in water, THF, NMP and toluene; format: physicochemical; conditions: for Solubility NMP: N-methylpyrrolidone; for Solubility NMP / Solubility THF / Solubility Toluene / Solubility Water: 25° C., saturation solubility; for Solubility THF: tetrahydrofuran
Experimental: 2 g each of water, tetrahydrofuran (THF), N-methylpyrrolidone (NMP), and toluene were added to glass screw tube bottles. Small portions of styrenesulfonic acid salts were added thereto at 25° C., and the solubilities thereof were observed while shaking the bottles by hand. In each case, the point at which the solid started to remain was determined to be saturation solubility, and the solubility was calculated by the following Equation. Solubility (wt %)=A/(S+A)×100
A: Weight of amine added (g)

[2] = Evaluation 2 (Storage Stability): accelerated test of polymerization stability of the solid at 60° C.; conditions: for Comprehensive Evaluation (storage stability): sealed bottle, one week
Experimental: 2.0 g of the solid of styrenesulfonic acid salt was added to glass screw tube bottle, and the bottle was sealed with a plug. Then, the bottle was placed in a box dryer at 60° C., and an accelerated test of polymerization stability was performed.
Sampling was performed every other day for a total of one week to check properties, odor, pH change, and the progress of polymerization by heat.
TOASS was dissolved in dimethylformamide and subjected to GPC analysis using a 10 mmol/L lithium bromide dimethylformamide solution as eluent.

Solubility (in words) [1] | Solubility in water (in words) [1] | Properties on the first day of evaluation ([2]; solid, 60° C., first day) | Compound | Monomer (area %), after one week ([2]; GPC, solid, 60° C.) [area %] | Odor, after one week ([2]; solid, 60° C.) | Solubility NMP [1] | Solubility THF [1] | Solubility Toluene [1] | Solubility Water ([1]; water) | Comprehensive Evaluation (storage stability) ([2]; solid, 60° C.) | Solubility in an organic solvent (in words) ([1]; organic solvent) | Solubility in water (in words) ([1]; water) | Monomer (area %), before start of reaction ([2]; GPC, before start of the 60° C. test) [area %] | Odor, before start of reaction ([2]; before start of the 60° C. test) | Solubility (in words) ([1]; overall, Evaluation 1)
did not have sufficient solubility | – | – | C=Cc1ccc(S(=O)(=O)O)cc1.CCCCCCCCN [MOASS, parastyrenesulfonic acid n-monooctylamine salt, reference compound] | 92.20 | No | – | – | – | – | – | – | – | – | – | –
– | poor water solubility | yellow translucent plastic form | C=Cc1ccc(S(=O)(=O)O)cc1.CCCCCCCCN(CCCCCCCC)CCCCCCCC [TOASS, parastyrenesulfonic acid n-trioctylamine, reference compound] | 0.00 | Yes | – | – | – | – | – | – | – | – | – | –
– | – | – | parastyrenesulfonic acid N,N-diisopropylethylamine salt [DIPEASS] | 92.40 | No | ∘ (Easily soluble (10 wt % or more)) | Δ (Soluble (1 to 10 wt %)) | Δ (Soluble (1 to 10 wt %)) | ∘ (Easily soluble (10 wt % or more)) | ∘ | – | – | – | – | –
– | – | – | parastyrenesulfonic acid N,N-dimethylcyclohexylamine salt [CHASS] | 97.24 | No | ∘ (Easily soluble (10 wt % or more)) | ∘ (Easily soluble (10 wt % or more)) | Δ (Soluble (1 to 10 wt %)) | ∘ (Easily soluble (10 wt % or more)) | ∘ | sufficient solubility in an organic solvent | soluble in water | 100 | No | –
– | – | – | parastyrenesulfonic acid dicyclohexylamine salt [DCHASS, reference compound] | – | – | ∘ (Easily soluble (10 wt % or more)) | x (Insoluble (1 wt % or less)) | x (Insoluble (1 wt % or less)) | x (Insoluble (1 wt % or less)) | – | – | – | – | – | did not have sufficient solubility
